Counter-ions that a name gives are not always drawn.

These results are taken from patent US12371436B2, “Substituted benzodiazoliums as ENaC inhibitors” (ENTERPRISE THERAPEUTICS LIMITED, priority 2016, dated 2025).

The assay concerns the target T1, ENaC (Homo sapiens, UniProt P37088+P51168+P51170).
T1 construct: host or cells: primary human bronchial epithelial cells (HBECs) differentiated at air-liquid interface
T1 sequence (P37088 1-669): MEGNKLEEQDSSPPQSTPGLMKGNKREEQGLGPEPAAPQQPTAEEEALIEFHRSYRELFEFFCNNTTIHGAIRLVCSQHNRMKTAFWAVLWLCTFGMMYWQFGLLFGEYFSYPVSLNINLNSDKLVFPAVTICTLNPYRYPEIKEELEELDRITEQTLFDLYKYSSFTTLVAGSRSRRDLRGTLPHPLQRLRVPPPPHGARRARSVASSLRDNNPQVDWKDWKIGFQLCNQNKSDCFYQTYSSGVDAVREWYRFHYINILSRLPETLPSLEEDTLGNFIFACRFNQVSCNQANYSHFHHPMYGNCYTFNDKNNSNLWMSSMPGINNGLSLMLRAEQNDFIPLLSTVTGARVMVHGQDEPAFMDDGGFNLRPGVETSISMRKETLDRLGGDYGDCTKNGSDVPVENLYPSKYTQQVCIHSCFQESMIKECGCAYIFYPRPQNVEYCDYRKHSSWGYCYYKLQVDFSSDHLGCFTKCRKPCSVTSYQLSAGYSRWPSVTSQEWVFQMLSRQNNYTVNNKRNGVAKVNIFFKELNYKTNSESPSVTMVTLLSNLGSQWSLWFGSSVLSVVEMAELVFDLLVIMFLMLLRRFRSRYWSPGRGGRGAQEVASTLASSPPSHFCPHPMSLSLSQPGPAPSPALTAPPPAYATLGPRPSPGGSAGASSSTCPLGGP
T1 sequence (P51168 1-640): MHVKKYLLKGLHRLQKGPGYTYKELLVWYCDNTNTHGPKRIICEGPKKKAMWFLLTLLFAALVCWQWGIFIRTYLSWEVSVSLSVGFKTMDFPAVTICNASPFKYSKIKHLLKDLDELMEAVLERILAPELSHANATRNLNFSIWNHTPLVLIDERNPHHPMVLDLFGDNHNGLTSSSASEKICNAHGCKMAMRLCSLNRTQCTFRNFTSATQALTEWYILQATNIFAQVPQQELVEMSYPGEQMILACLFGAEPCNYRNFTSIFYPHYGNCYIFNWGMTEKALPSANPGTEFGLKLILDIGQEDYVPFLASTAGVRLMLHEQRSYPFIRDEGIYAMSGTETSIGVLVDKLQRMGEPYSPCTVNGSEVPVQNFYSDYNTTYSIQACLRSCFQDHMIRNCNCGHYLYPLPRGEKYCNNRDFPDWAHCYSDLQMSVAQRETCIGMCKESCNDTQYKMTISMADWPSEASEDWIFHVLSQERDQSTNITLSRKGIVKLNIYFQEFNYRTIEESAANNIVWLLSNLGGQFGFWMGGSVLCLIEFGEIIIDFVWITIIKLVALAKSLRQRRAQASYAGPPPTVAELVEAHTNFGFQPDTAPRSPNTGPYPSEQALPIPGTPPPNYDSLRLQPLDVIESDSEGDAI
T1 sequence (P51170 1-649): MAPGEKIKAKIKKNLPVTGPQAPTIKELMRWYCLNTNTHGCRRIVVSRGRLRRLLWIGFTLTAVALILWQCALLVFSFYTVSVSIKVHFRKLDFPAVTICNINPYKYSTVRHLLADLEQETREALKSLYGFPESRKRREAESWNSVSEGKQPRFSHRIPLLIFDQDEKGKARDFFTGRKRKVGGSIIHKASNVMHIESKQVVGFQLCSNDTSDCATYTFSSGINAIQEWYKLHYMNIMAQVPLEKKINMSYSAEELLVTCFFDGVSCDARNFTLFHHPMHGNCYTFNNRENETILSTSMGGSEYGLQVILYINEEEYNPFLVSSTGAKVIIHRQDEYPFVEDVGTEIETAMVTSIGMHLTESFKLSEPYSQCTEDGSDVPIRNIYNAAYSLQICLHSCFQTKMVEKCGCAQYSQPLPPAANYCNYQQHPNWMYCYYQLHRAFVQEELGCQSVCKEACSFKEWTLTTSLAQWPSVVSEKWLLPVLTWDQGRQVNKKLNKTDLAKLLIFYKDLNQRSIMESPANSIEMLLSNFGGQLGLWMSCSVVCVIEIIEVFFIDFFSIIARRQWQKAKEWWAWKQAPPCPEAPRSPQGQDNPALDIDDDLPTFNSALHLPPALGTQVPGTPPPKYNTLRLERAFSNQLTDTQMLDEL
Briefly: Short circuit current assay to determine ENaC blocker potency in human bronchial epithelial cells. The following applies: 50% inhibition of total amiloride-sensitive ISC, apical addition, read-out: Averages.ENaC IC50 (nM) Avg. In kind it is cell-based. Here is the method: Example 68—Short circuit current assay to determine ENaC blocker potency in human bronchial epithelial cells
Human bronchial epithelial cells (HBECs) (Lonza, UK) were cultured using a modification of the method described by Coote et al, (2008). Cells were seeded into plastic T-75 flasks and grown in Bronchial Epithelial Cell Growth Medium (BEGM) (Lonza, UK) supplemented with bovine pituitary extract (52 ng/mL), hydrocortisone (0.5 μg/mL), human recombinant Epidermal Growth Factor (0.5 ng/mL), epinephrine (0.5 ng/mL), transferrin (10 ng/mL), insulin (5 ng/mL), retinoic acid (0.1 ng/mL), triiodothyronine (6.5 ng/mL), gentamycin (50 μg/mL) and amphotericin-B (50 ng/mL). Medium was changed every 48 hours until cells were 90% confluent. Cells were then passaged and seeded (8.25×10^5 cells/insert) onto polycarbonate Snapwell™ inserts (Costar, UK) in differentiation media containing 50% DMEM in BGEM with the same supplements as above but without triiodothyronine and a final retinoic acid concentration of 50 nM (all-trans retinoic acid; Sigma-Aldrich, UK). Cells were maintained submerged for the first 7 days in culture after which time they were exposed to an apical air interface for the remainder of the culture period. From the first day of establishment of an ALI, HBEC were fed with a DMEM:HAMS F-12 (1:1) media containing 2% Ultroser G (Pall BioSepra, France) with gentamycin (50 μg/mL) and amphotericin B (50 ng/mL). Cells were used for short-circuit current assay between days 14-21 after the establishment of the ALI. At all stages of culture, cells were maintained at 37° C. in 5% CO2 in an air incubator.
Short-Circuit Current (ISC) Measurements
Snapwell inserts were mounted in Costar Vertical Diffusion Chambers (Costar, UK) and were bathed with continuously gassed Ringer solution (5% CO2 in O2; pH 7.4) maintained at 37° C. containing (in mM): 120 NaCl, 25 NaHCO3, 3.3 KH2PO4, 0.8 K2HPO4, 1.2 CaCl2, 1.2 MgCl2 and 10 glucose. The solution osmolarity was always between 280-300 mOsm/kg H2O for all physiological salt solutions used. Cells were voltage clamped to 0 mV (model EVC4000, WPI). Transepithelial resistance (RT) was measured by applying a 2 mV pulse at 30 s intervals and calculating RT by Ohm's law. Data were recorded using a PowerLab workstation (ADlnstruments, UK).
ENaC blocker compounds were added to the apical chamber from a 1000-fold stock solution (prepared in DMSO) to achieve a cumulative concentration response in terms of the inhibition of the basal ISC. At the completion of the concentration response, a supra-maximal concentration of amiloride (10 μM) was added. The concentration of test compound that induced a 50% inhibition of the total amiloride-sensitive ISC (IC50) was calculated using GraphPad Prism v6.05. The results are presented in Table 2, from which it can be seen that the compounds of the present invention have ENaC inhibiting activity.
Take `CCn1c(CNC(=O)c2nc3cc[nH]c3nc2N)[n+](C)c2ccccc21` [Example 1, 2-[({3-amino-5H-pyrrolo[2,3-b]pyrazin-2-yl}formamido)methyl]-1-ethyl-3-methyl-1H-1,3-benzodiazol-3-ium formate]: the concentration for half-maximal inhibition (IC50) – broadly, the concentration at which inhibition is half-maximal – turned out to be 33 nM. With `CCn1c(CNC(=O)c2nc3cc[nH]c3nc2N)[n+](C)c2ccc(F)cc21` [Example 2, 2-[({3-amino-5H-pyrrolo[2,3-b]pyrazin-2-yl}formamido)methyl]-1-ethyl-6-fluoro-3-methyl-1H-1,3-benzodiazol-3-ium chloride], the IC50 turned out to be 43 nM. The result for `CCn1c(CNC(=O)c2nc3cc[nH]c3nc2N)[n+](C)c2ccc(Cl)cc21` [Example 3, 2-[({3-amino-5H-pyrrolo[2,3-b]pyrazin-2-yl}formamido)methyl]-6-chloro-1-ethyl-3-methyl-1H-1,3-benzodiazol-3-ium formate] reads 19 nM; that for `CCn1c(CNC(=O)c2nc3cc[nH]c3nc2N)[n+](C)c2ccc(OC)cc21` [Example 4, 2-[({3-amino-5H-pyrrolo[2,3-b]pyrazin-2-yl}formamido)methyl]-1-ethyl-6-methoxy-3-methyl-1H-1,3-benzodiazol-3-ium formate], 8 nM. Take `CCn1c(CNC(=O)c2nc3cc[nH]c3nc2N)[n+](C)c2ccc(C(F)(F)F)cc21` [Example 5, 2-[({3-amino-5H-pyrrolo[2,3-b]pyrazin-2-yl}formamido)methyl]-1-ethyl-3-methyl-6-(trifluoromethyl)-1H-1,3-benzodiazol-3-ium formate]: the IC50 is 9 nM. In the case of `CCn1c(CNC(=O)c2nc3cc[nH]c3nc2N)[n+](C)c2ccc(OC(F)(F)F)cc21` [Example 6, 2-[({3-amino-5H-pyrrolo[2,3-b]pyrazin-2-yl}formamido)methyl]-1-ethyl-3-methyl-6-(trifluoromethoxy)-1H-1,3-benzodiazol-3-ium formate], the IC50 came out at 5 nM. Consider `CCn1c(CNC(=O)c2nc3cc[nH]c3nc2N)[n+](CC)c2ccc(OC)cc21` [Example 7, 2-[({3-amino-5H-pyrrolo[2,3-b]pyrazin-2-yl}formamido)methyl]-1,3-diethyl-6-methoxy-1H-1,3-benzodiazol-3-ium formate], for which the IC50 worked out at 3 nM. Turning to `CCn1c(CNC(=O)c2nc3cc[nH]c3nc2N)[n+](Cc2ccccc2)c2ccc(OC)cc21` [Example 8, 2-[({3-amino-5H-pyrrolo[2,3-b]pyrazin-2-yl}formamido)methyl]-3-benzyl-1-ethyl-6-methoxy-1H-1,3-benzodiazol-3-ium formate], the IC50 worked out at 9 nM.

`CCn1c(CNC(=O)c2nc3cc[nH]c3nc2N)[n+](CC(=O)OC)c2ccc(OC)cc21` [Example 9, 2-[({3-amino-5H-pyrrolo[2,3-b]pyrazin-2-yl}formamido)methyl]-1-ethyl-6-methoxy-3-(2-methoxy-2-oxoethyl)-1H-1,3-benzodiazol-3-ium bromide]: the IC50 came out at 48 nM. Regarding `CCn1c(CNC(=O)c2nc3cc[nH]c3nc2N)[n+](CC(=O)O)c2ccc(OC)cc21` [Example 10, 2-[({3-amino-5H-pyrrolo[2,3-b]pyrazin-2-yl}formamido)methyl]-3-(carboxylatomethyl)-1-ethyl-6-methoxy-1H-1,3-benzodiazol-3-ium], the IC50 worked out at 199 nM.

`CCn1c(CNC(=O)c2nc3cc[nH]c3nc2N)[n+](CC(N)=O)c2ccc(OC)cc21` [Example 11, 2-[({3-amino-5H-pyrrolo[2,3-b]pyrazin-2-yl}formamido)methyl]-3-(carbamoylmethyl)-1-ethyl-6-methoxy-1H-1,3-benzodiazol-3-ium bromide]: the IC50 worked out at 22 nM. `CCn1c(CNC(=O)c2nc3cc[nH]c3nc2N)[n+](CCSC)c2ccc(OC)cc21` [Example 12, 2-[({3-amino-5H-pyrrolo[2,3-b]pyrazin-2-yl}formamido)methyl]-1-ethyl-6-methoxy-3-[2-(methylsulfanyl)ethyl]-1H-1,3-benzodiazol-3-ium iodide]: the IC50 worked out at 5 nM. With `CCn1c(CNC(=O)c2nc3cc[nH]c3nc2N)[n+](CCO)c2ccc(OC)cc21` [Example 13, 2-[({3-amino-5H-pyrrolo[2,3-b]pyrazin-2-yl}formamido)methyl]-1-ethyl-3-(2-hydroxyethyl)-6-methoxy-1H-1,3-benzodiazol-3-ium], the IC50 was found to be 4 nM. Turning to `CCn1c(CNC(=O)c2nc3cc[nH]c3nc2N)[n+](CCOCCOCCO)c2ccc(OC)cc21` [Example 14, 2-[({3-amino-5H-pyrrolo[2,3-b]pyrazin-2-yl}formamido)methyl]-1-ethyl-3-{2-[2-(2-hydroxyethoxy)ethoxy]ethyl}-6-methoxy-1H-1,3-benzodiazol-3-ium], the IC50 was 11 nM. For `C[n+]1c(CNC(=O)c2nc3cc[nH]c3nc2N)n(Cc2ccccc2)c2ccccc21` [Example 15, 2-[({3-amino-5H-pyrrolo[2,3-b]pyrazin-2-yl}formamido)methyl]-1-benzyl-3-methyl-1H-1,3-benzodiazol-3-ium], the IC50 was 198 nM.
